Assay results as given in patent publication US6291657A (priority 1993, dated 2001).
“Also recorded” adds a separate entry of the source.

Assays:
[1] = test system: glycolipid biosynthesis in HL-60 cells; assay: Inhibition of glycolipid biosynthesis in HL-60 cells, [14C]-palmitic acid labelling, 1D-TLC;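 on all read-outs here: cells cultured 24 h with or without test compound, total cellular lipids resolved by one-dimensional TLC and detected by autoradiography, inhibition shown as missing Glc-Cer and gangliosides versus untreated cells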; assay type: cell-based, human; conditions: for effect of N-alkyl chain length on inhibition of glycolipid biosynthesis (loss of detectable Glc-Cer): HL-60, 0.5 mM, 1D-TLC (FIG. 4); for inhibition of glycolipid biosynthesis: HL-60, 500 μM, 1D-TLC (FIG. 1)
[2] = test system: Glc-Cer accumulation in WEHI-3B murine macrophage cells; assay: In vitro Gaucher's disease model: CBE induced glycolipid storage in WEHI-3B cells, 1D-TLC; assay type: cell-based; conditions: CBE
Description: In this model, the murine macrophage cell line WEHI-3B was cultured in the presence of an irreversible glucocerebrosidase inhibitor, conduritol β epoxide (CBE), to mimic the inherited disorder found in Gaucher's disease. WEHI-3B cells are well-known, widely distributed and readily available murine macrophage cells. They are described in Cancer Res. 37, 546-550 (1977), and are readily available from the American Type Culture Collection, Rockville, Md, under accession number ATCC TIB 68. The compounds of the invention prevent lysosomal glycolipid storage which is useful for the management of Gaucher's disease and other glycolipid storage disorders as illustrated hereinafter in Table 3. Gaucher's disease is an autosomal recessive disorder characterized by an impaired ability to degrade glucocerebroside (glucosyl ceramide, Glc-Cer) due to mutations in the gene encoding β-glucocerebrosidase (β-D-glucosyl-N-acylsphingosine glucohydrolase, EC 3.2.1.45). This defect results in the lysosomal accumulation of Glc-Cer in cells of the macrophage-monocyte system [Barranger and Ginns, in The Metabolic Basis of Inherited Diseases, ed. Scriver et al., pp. 1677-1698, McGraw-Hill, New York, (1989); Beutler, Science 256, 794-799 (1992)]. By slowing the rate of glycolipid synthesis, the impaired catabolism of Glc-Cer can be offset, thereby leading to the maintenance of a balanced level of Glc-Cer.
FIGS. 5 and 6 show the analysis of NB-DNJ and NB-DGJ in an in vitro Gaucher's disease model.
The in vitro Gaucher's disease model was prepared as follows: WEHI-3B cells (American Type Culture Collection, Rockville, Md., U.S.A.) were maintained in logarithmic phase growth for 14 days in RPMI-1640 medium, 10% FCS, in the presence or absence of 50 μM conduritol β epoxide (CBE, Toronto Research Chemicals, Downsview, Canada) with or without NB-DNJ or NB-DGJ. Cells were passaged every 3 days and compound concentrations maintained throughout. Equal cell numbers (5×10^6) were harvested, extracted in 1 ml chloroform: methanol (2:1 v/v) overnight at 4° C., the extracts centrifuged, the chloroform:methanol extract retained and the pellet re-extracted as above for 2 hr. at room temperature. Pooled extracts were dried under nitrogen, re-dissolved in 10 μl chloroform:methanol (2:1 v/v) and separated by 1D-TLC in chloroform:methanol:water […]. Plates were air dried and visualized using α-naphthol (1% w/v in methanol) followed by 50% (v/v) sulphuric acid.

WEHI-3B cell lysosomes = assay: Transmission electron microscopy of lysosomes of CBE treated WEHI-3B cells; assay type: cell-based, murine; conditions: transmission electron microscopy (FIG. 6)
[3] = test system: UDP-glucose:N-acylsphingosine glucosyltransferase; assay: Inhibition of UDP-glucose:N-acylsphingosine glucosyltransferase; assay type: biochemical, rat brain, mouse macrophage (WEHI-3B); conditions: for IC50: highest concentrations tested, read-out: IC50 (not inhibitory)

**Q.** With `CCCN1C[C@H](O)[C@@H](O)[C@H](O)[C@H]1CO` [N-propyl DNJ] as the molecule, how does the “effect of N-alkyl chain length on inhibition of glycolipid biosynthesis (loss of detectable Glc-Cer)” value [1] read?
**A.** partial inhibitory activity

**Q.** `CCCN1C[C@H](O)[C@@H](O)[C@@H](O)[C@H]1CO` [N-propyl DGJ, N-propyl deoxygalactonojirimycin] was tested. Which “effect of N-alkyl chain length on inhibition of glycolipid biosynthesis (loss of detectable Glc-Cer)” value [1] did it give?
**A.** partial inhibitory activity; also recorded: partially active

**Q.** With `CCCCCCN1C[C@H](O)[C@@H](O)[C@@H](O)[C@H]1CO` [N-hexyl DGJ, N-hexyl deoxygalactonojirimycin] as the molecule, how does the “effect of N-alkyl chain length on inhibition of glycolipid biosynthesis (loss of detectable Glc-Cer)” value [1] read?
**A.** completely prevented glycolipid biosynthesis; also recorded: completely inhibited glycolipid biosynthesis

**Q.** What about the “prevention of glycolipid storage in in vitro Gaucher's disease model (in words)” value [2] of the same molecule?
**A.** offset glucoceramide accumulation

**Q.** For `O[C@H]1[C@H](O)[C@@H](O)[C@@H]2O[C@@H]2[C@@H]1O` [CBE, conduritol β epoxide], which “glycolipid accumulation in lysosomes” value (WEHI-3B cell lysosomes) is on record?
**A.** glycolipid accumulation observed in the lysosomes

**Q.** How did the “effect of N-alkyl chain length on inhibition of glycolipid biosynthesis (loss of detectable Glc-Cer)” value [1] turn out when `CCCCCCN1C[C@H](O)[C@@H](O)[C@H](O)[C@H]1CO` [N-hexyl DNJ] was run?
**A.** completely inhibited glycolipid biosynthesis

**Q.** Which “effect of N-alkyl chain length on inhibition of glycolipid biosynthesis (loss of detectable Glc-Cer)” value [1] does the source give for `CCN1C[C@H](O)[C@@H](O)[C@@H](O)[C@H]1CO` [N-ethyl DGJ] here?
**A.** no effect; also recorded: inactive

**Q.** `CCCCN1C[C@@H](O)[C@@H](O)[C@H](O)[C@H]1CO` [NB-DMJ, N-butyl deoxymannojirimycin] was tested. Which “inhibition of glycolipid biosynthesis” value [1] did it give?
**A.** without effect

**Q.** `CCCCN1C[C@@H](O)[C@H](O)[C@H](O)[C@@H]1C` [NB-DFJ] was tested. Which “inhibition of glycolipid biosynthesis” value [1] did it give?
**A.** without effect

**Q.** `OC[C@H]1NC[C@H](O)[C@@H](O)[C@H]1O` [DGJ, Deoxygalactonojirimycin] was tested. Which “effect of N-alkyl chain length on inhibition of glycolipid biosynthesis (loss of detectable Glc-Cer)” value [1] did it give?
**A.** no effect; also recorded: inactive

**Q.** And the “inhibition of glucose transfer” value ([3]; highest concentration tested 5.0 mM (FIG. 8))?
**A.** not inhibitory at the highest concentration tested

**Q.** And the IC50 [3]?
**A.** > 5 mM

**Q.** For `CCCCN1C[C@H](NC(C)=O)[C@@H](O)[C@H](O)[C@H]1CO` [NB-NAG, N-butyl 2-acetamido-1,2,5-trideoxy-1,5-imino-D-glucitol], which “inhibition of glycolipid biosynthesis” value [1] is on record?
**A.** without effect

**Q.** `CN1C[C@H](O)[C@@H](O)[C@H](O)[C@H]1CO` [N-methyl DNJ] was tested. Which “effect of N-alkyl chain length on inhibition of glycolipid biosynthesis (loss of detectable Glc-Cer)” value [1] did it give?
**A.** no effect

**Q.** With `OC[C@H]1NC[C@H](O)[C@@H](O)[C@@H]1O` [DNJ, deoxynojirimycin] as the molecule, how does the “effect of N-alkyl chain length on inhibition of glycolipid biosynthesis (loss of detectable Glc-Cer)” value [1] read?
**A.** no effect

**Q.** What about the “inhibition of glucose transfer” value ([3]; highest concentration tested 6.1 mM (FIG. 8)) of the same molecule?
**A.** not inhibitory at the highest concentration tested

**Q.** And the IC50 [3]?
**A.** > 5 mM

**Q.** How did the “effect of N-alkyl chain length on inhibition of glycolipid biosynthesis (loss of detectable Glc-Cer)” value [1] turn out when `CN1C[C@H](O)[C@@H](O)[C@@H](O)[C@H]1CO` [N-methyl DGJ] was run?
**A.** no effect; also recorded: inactive
